Values after ≈ are worked out from the molar mass of the structure shown. Like-named read-outs stand apart in the source and are kept apart here.
What was measured:
HIV-1 = experiment: Inhibitory activity against HIV-1 (literature method, Chen et al. J Virol 1997); conditions: for Anti-HIV (%, 1.0 μM): compound at 1.0 μM; for inhibition at 1 µM: Human immunodeficiency virus 1, read-out: Anti-HIV (%, 1.0 μM); for EC50: Human immunodeficiency virus 1; for Therapeutic index (TI) = 50% cytotoxicity doses/50% effective dose: value in brackets after EC50
Description: Inhibitory activity of the coumarin derivatives of the present invention against HIV-1.
Inhibitory activity of the compounds against HIV-1 is assayed using the literature method. The experimental conditions, procedures, reagents and so on of the experiment are referred to the reference of “ZHIWEI CHEN, PEI ZHOU, DAVID D. HO, et al. Genetically divergent strains of simian immuno-deficiency virus use CCR5 as a coreceptor for entry. Journal of Virology, 1997, 71(4): 2705-2714”.

host cells of the virus = experiment: Cell toxicity to the host cells of the virus at 10 μM; type: cell-based
[1] = test system: Mycobacterium tuberculosis H37Rv (ATCC 27294); experiment: Microplate Alamar Blue Assay (MABA) in BACTEC 12B medium (TAACF screen); type: cell-based
[2] = read-out: anti-TB active compound (MIC90 less than 10 μg/mL), classification

| SMILES | inhibition at 1 µM (HIV-1) | Cell toxicity (10 μM) (host cells of the virus) | melting point | other results |
| --- | --- | --- | --- | --- |
| CCCc1cc(=O)oc2c3c(c4c(c12)OC(C)(C)C=C4)OC(C)CC3O (single isomer, unassigned; (+)) [(+)-11-demethyl Calanolide A, reference compound] |  |  |  | Anti-HIV (%, 1.0 μM) (HIV-1): 75%; Cell toxicity (10 μM) (host cells of the virus; class symbol, share of host cells of the virus died at 10 μM compound): ++ (10-80%); Cell toxicity (10 μM), number printed before the class symbol (host cells of the virus; host cells of the virus died at 10 μM compound): 54% |
| CC1CC(=O)c2c(c3c(c4c(CN5CCN(C)CC5)cc(=O)oc24)OC(C)(C)C=C3)O1 (stereo not drawn) [Example 7, 6,6,10-trimethyl-4-p-methylpiperazidinylmethylene-10,11-dihydro-6H-[2,3-f:2′,3′-h]-tri pyranyl-2,12-dione] | 48.3% | − | 238 to 239 °C |  |
| CCc1cc(=O)oc2c3c(c4c(c12)OC(C)(C)C=C4)OC(C)CC3=O (stereo not drawn) [Example 9] | 73.2% | − |  | EC50 (HIV-1): 270 nM; Therapeutic index (TI) = 50% cytotoxicity doses/50% effective dose (HIV-1): > 1000 |
| CCCc1cc(=O)oc2c3c(c4c(c12)OC(C)(C)C=C4)OC(C)(C)CC3=O [Example 12, 6,6,10,10-tetramethyl-4-n-propyl-2H,6H,12H-benzo[1,2-b:3,4-b′:5,6-b″]-tripyranyl-2,12-dione] | 68.3% |  | 110 to 112 °C | EC50 (HIV-1): 640 nM; Therapeutic index (TI) = 50% cytotoxicity doses/50% effective dose (HIV-1): 47-140 |
| CCCc1cc(=O)oc2c1c1c(c3occc(=O)c32)C=CC(C)(C)O1 [Example 13, 6,6-dimethyl-4-n-propyl-2H,6H,12H-benzo[1,2-b:3,4-b′:5,6-b″]-tripyranyl-2,12-dione] | 64.9% | − | 102 to 104 °C |  |
| CCCCCC1CC(=O)c2c(c3c(c4c(CCC)cc(=O)oc24)OC(C)(C)C=C3)O1 (stereo not drawn) [Example 15, 6,6-dimethyl-4-n-propyl-10-n-pentyl-2H,6H,12H-benzo[1,2-b:3,4-b′:5,6-b″]-tripyranyl-2,12-dione] | 46.4% |  | 128 to 131 °C |  |
| CCCc1cc(=O)oc2c3c(c4c(c12)OC(C)(C)C=C4)OC(c1ccc(C)cc1)CC3=O (stereo not drawn) [Example 17, 6,6-dimethyl-4-n-propyl-10-p-methyl-phenyl-2H,6H,12H-benzo[1,2-b:3,4-b′:5,6-b″]-tripyranyl-2,12-dione] | 57% | − | 174 to 176 °C |  |
| CCCc1cc(=O)oc2c3c(c4c(c12)OC(C)(C)C=C4)O[C@@H]1CCCC[C@H]1C3=O [Example 18, 6,6-dimethyl-4-n-propyl-10,11-trans-cyclohexyl-2H,6H,12H-benzo[1,2-b:3,4-b′:5,6-b″]-tripyranyl-2,12-dione] | 40% |  | 151 to 153 °C | IC50 [1]: 46.8 µg/mL (≈ 119 µM); MIC90 ([1]; MABA, H37Rv, read-out: MIC90): > 100 µg/mL |
| CCCc1cc(=O)oc2c3c(c4c(c12)OC(C)(C)C=C4)O[C@@H]1CCCC[C@@H]1C3=O [Example 19, 6,6-dimethyl-4-n-propyl-10,11-cis-cyclohexyl-2H,6H,12H-benzo[1,2-b:3,4-b′:5,6-b″]-tripyranyl-2,12-dione] | 59.3% |  | 156 to 159 °C | IC50 [1]: 7.95 µg/mL (≈ 20.1 µM); MIC90 ([1]; MABA, H37Rv, read-out: MIC90): 11.2 µg/mL (≈ 28.5 µM) |
| CCCc1c(Cl)c(=O)oc2c3c(c4c(c12)OC(C)(C)C=C4)OC(C)CC3=O (stereo not drawn) [Example 20, 6,6,10-trimethyl-3-chrolo-4-n-propyl-2H,6H,12H-benzo[1,2-b:3,4-b′:5,6-b″]-tripyranyl-2,12-dione] | 68.1% | − |  | EC50 (HIV-1): 370 nM; Therapeutic index (TI) = 50% cytotoxicity doses/50% effective dose (HIV-1): 243-730 |
| COc1cc(-c2cc(=O)oc3c4c(c5c(c23)OC(C)(C)C=C5)OC(C)CC4=O)cc(OC)c1OC (stereo not drawn) [Example 24, 6,6,10-trimethyl-4-(3,4,5-trimethoxyl)-phenyl-2H,6H,12H-benzo[1,2-b:3,4-b′:5,6-b″]-tripyranyl-2,12-dione] | 58% | − | 129 to 131 °C |  |
| CC1CC(=O)c2c(c3c(c4c5c(c(=O)oc24)CCCC5)OC(C)(C)C=C3)O1 (stereo not drawn) [Example 27, 6,6,10-trimethyl-3,4-cyclohexyl-2H,6H,12H-benzo[1,2-b:3,4-b′:5,6-b″]-tripyranyl-2,12-dione] | 67% | − | 121 to 123 °C |  |
| CCCc1cc(=O)oc2c3c(c4c(c12)OC(C)(C)C=C4)OC(C)CC3=O (stereo not drawn) [Example 29, 6,6,10-trimethyl-4-n-propyl-2H,6H,12H-benzo[1,2-b:3,4-b′:5,6-b″]-tripyranyl-2,12-dione] |  | − | 112 to 115 °C | Anti-HIV (%, 1.0 μM) (HIV-1): 73.1% |
| CCCc1cc(=O)oc2c3c(c4c(c12)OC(C)(C)C=C4)OCC(C)C3=O (stereo not drawn) [Example 30, 6,6,11-trimethyl-4-n-propyl-2H,6H,12H-benzo[1,2-b:3,4-b′:5,6-b″]-tripyranyl-2,12-dione] | 38.9% |  | 133 to 134 °C |  |
| CCCCc1cc(=O)oc2c3c(c4c(c12)OC(c1ccccc1)C=C4)OC(C)CC3=O (stereo not drawn) [Example 44] | 96.4% |  | 137 to 139 °C |  |
| CCc1cc(=O)oc2c3c(c4c(c12)OC(c1ccccc1)C=C4)OC(C)CC3=O (stereo not drawn) [Example 45] | 96.4% |  | 126 to 128 °C | IC50 [1]: 2.01 µg/mL (≈ 5.18 µM); MIC90 ([1]; MABA, H37Rv, read-out: MIC90): 2.73 µg/mL (≈ 7.02 µM); MIC90 [1, 2]: < 10 µg/mL |
| CCCCC1C=Cc2c3c(c4oc(=O)cc(CC)c4c2O1)C(=O)CC(C)O3 (stereo not drawn) [Example 46] | 96.7% |  | 119 to 121 °C | IC50 [1]: 0.276 µg/mL (≈ 0.749 µM); MIC90 ([1]; MABA, H37Rv, read-out: MIC90): 0.716 µg/mL (≈ 1.94 µM); MIC90 [1, 2]: < 10 µg/mL |
| CCCC1C=Cc2c3c(c4oc(=O)cc(CC)c4c2O1)C(=O)CC(C)O3 (stereo not drawn) [Example 47] | 97% |  | 119 to 121 °C | IC50 [1]: 1.49 µg/mL (≈ 4.21 µM); MIC90 ([1]; MABA, H37Rv, read-out: MIC90): 1.73 µg/mL (≈ 4.88 µM); MIC90 [1, 2]: < 10 µg/mL |
| CCCc1c(Cl)c(=O)oc2c3c(c4c(c12)OC(c1ccccc1)C=C4)OC(C)CC3=O (stereo not drawn) [Example 50, 1-methyl-4-n-propyl-3-chloro-6-phenyl-2H,6H,12H-benzo[1,2-b:3,4-b′:5,6-b″]-tripyranyl-12-dione] | 96.3% |  | 152 to 154 °C | IC50 [1]: 6.07 µg/mL (≈ 13.9 µM); MIC90 ([1]; MABA, H37Rv, read-out: MIC90): 6.7 µg/mL (≈ 15.3 µM); MIC90 [1, 2]: < 10 µg/mL |
| CCCc1cc(=O)oc2c3c(c4c(c12)OC(C)(C)C=C4)OC(CBr)CC3=O (stereo not drawn) [Example 57] | 93.5% | − |  | EC50 (HIV-1): 2.85 nM; anti-HIV-1 activity in vitro compared to (+)-calanolide A (HIV-1; in words): much higher inhibitory activity; therapeutic index, in words (HIV-1; in words): high therapeutic index; Therapeutic index (TI) = 50% cytotoxicity doses/50% effective dose (HIV-1): > 10526; IC50 [1]: 0.825 µg/mL (≈ 1.9 µM); MIC90 ([1]; MABA, H37Rv, read-out: MIC90): 1.75 µg/mL (≈ 4.05 µM) |
| CCCCC1C=Cc2c3c(c4oc(=O)cc(CCC(F)(F)F)c4c2O1)C(=O)CC(C)O3 (stereo not drawn) [Example 73, 4-(3,3′,3″-trifluoro-n-propyl)-6-n-butyl-10-methyl-2H,6H,12H-benzo[1,2-b:3,4-b′: 5,6-b″]-tripyranyl-2,12-dione] | 53.6% | − | 129 to 130 °C |  |
| CCCc1cc(=O)oc2c3c(c4c(c12)OC(C)C=C4)OCC(C)C3=O (stereo not drawn) [Example 75, 6,11-dimethyl-4-n-propyl-2H,6H,12H-benzo[1,2-b:3,4-b′:5,6-b″]-tripyranyl-2,12-dione] | 62.4% |  | 135 to 137 °C | IC50 [1]: 1 µg/mL (≈ 2.95 µM); MIC90 ([1]; MABA, H37Rv, read-out: MIC90): 1.89 µg/mL (≈ 5.56 µM); MIC90 [1, 2]: < 10 µg/mL |
| C/C=C/C1C=Cc2c3c(c4oc(=O)cc(CCC)c4c2O1)C(=O)C(C)CO3 (stereo not drawn) [Example 76, 4-n-propyl-6-propenyl-11-methyl-2H,6H,12H-benzo[1,2-b:3,4-b′:5,6-b″]-tripyranyl-2,12-dione] | 37.8% | − | 165 to 166 °C |  |
| CCCCC1C=Cc2c3c(c4oc(=O)cc(CCC)c4c2O1)C(=O)C(C)CO3 (stereo not drawn) [Example 77, 4-n-propyl-6-n-butyl-11-methyl-2H,6H,12H-benzo[1,2-b:3,4-b′:5,6-b″]-tripyranyl-2,12-dione] | 35.2% |  | 144 to 145 °C |  |
| CCCc1c(Cl)c(=O)oc2c3c(c4c(c12)OC(C)C=C4)OC(C)CC3=O (stereo not drawn) [Example 81, 6,10-dimethyl-4-n-propyl-3-chloro-2H,6H,12H-benzo[1,2-b:3,4-b′:5,6-b″]-tripyranyl-2,12-dione] | 55.7% | − | 129 to 131 °C |  |
| C/C=C/C1C=Cc2c3c(c4oc(=O)c(Cl)c(CCC)c4c2O1)C(=O)CC(C)O3 (stereo not drawn) [Example 86, 4-n-propyl-6-propenyl-3-chloro-10-methyl-2H,6H,12H-benzo[1,2-b:3,4-b′:5,6-b″]-tripyranyl-2,12-dione] | 57.3% | − | 142 to 144 °C |  |
| CCCc1c(Cl)c(=O)oc2c3c(c4c(c12)OCC(C)=C4)OC(C)CC3=O (stereo not drawn) [Example 91, 4-n-propyl-3-chloro-7,10-dimethyl-2H,6H,12H-benzo[1,2-b:3,4-b′:5,6-b″]-tripyranyl-2,12-dione] | 49.1% | − | 129 to 131 °C |  |
| CCCc1c(F)c(=O)oc2c3c(c4c(c12)OCC(C)=C4)OC(C)CC3=O (stereo not drawn) [Example 92] | 47.1% | − | 122 to 124 °C |  |
| CCCc1cc(=O)oc2c3c(c4c(c12)OC(c1ccccc1[N+](=O)[O-])CC4OCC)OC(C)CC3=O (stereo not drawn) [Example 98, 8-ethoxyl-4-n-propyl-6-(o-nitrophenyl)-10-methyl-4-n-propyl-7,8,10,11-tetrahydro-6H-benzo[2,3-f;2′,3′-h]-tripyranyl-2,12-dione] | 61% |  | 237 to 240 °C |  |
